Laboratory results from US12116388B2, “Amylin receptor agonists” (Novo Nordisk A/S, priority 2022, dated 2024).
Like-named read-outs stand apart in the source and are kept apart here. Starred links: 1 amine or outer side, 2 acyl side, 3 side chain; linkers in the order of their positions; H or OH if unused. Residues, ends and D or L forms follow the SMILES beside them. *: point of attachment. C18 diacid = O=C(O)CCCCCCCCCCCCCCCCC(=O)*; γGlu = O=C(O)[C@H](CCC(=O)[*:2])N[*:1]

What was measured:
[1] = Oral pharmacokinetic profiles in Beagle dogs (SNAC tablets); assay type: in vivo; conditions: oral tablet: 3 mg compound, 300 mg SNAC, 7.7 mg magnesium stearate
Method: To be able to evaluate oral exposure following tablet dosing, tablet compositions comprising the test substance and SNAC (sodium N-(8-(2-hydroxybenzoyl)amino)caprylate) were prepared by mixing test substance with roller compacted SNAC and magnesium stearate as, e.g., described in WO 2019/149880.
This assay was performed to measure the oral bioavailability of a compound. The assay determined the exposure of test compound following oral administration in Beagle dogs as described by relevant pharmacokinetic parameters and plasma concentration curves.
Preparation of tablets for oral administration: tablets containing test compound used for the assay described herein were immediate release SNAC-based tablets. The test compound was spray-dried as neutral sodium salt (pH 7-8). Dry granulation was carried out by roller compaction on a Gerteis MINI-PACTOR. Tablets containing 3 mg test compound, 300 mg sodium N-(8-(2-hydroxybenzoyl)amino)caprylate (SNAC) and 7.7 mg magnesium stearate were produced on at Kilian Style One using 7.2×12 mm punches.
Determination of the absorption following oral administration: eight (8) male Beagle dogs, 1 to 8 years of age and weighing approximately 10-15 kg at the start of the studies, were used. The dogs were group-housed in pens (12 hours light:12 hours dark), and fed individually and restrictedly once daily with Royal Canin Medium Adult dog (Royal Canin Products, China Branch, or Brogaarden A/S, Denmark). Exercise and group social were permitted daily, whenever possible. The dogs were used for repeated pharmacokinetic studies with a suitable wash-out period between successive dosing. An appropriate acclimatisation period was given prior to initiation of the first pharmacokinetic study. All handling, dosing and blood sampling of the animals were performed by trained and skilled staff. Before the studies the dogs were fasted overnight and from 0 to 4 h after dosing. Besides, the dogs were restricted to water 1 hour before dosing until 4 hours after dosing, but otherwise had ad libitum access to water during the whole period.
Tablets containing the test compound were administered in the following manner: 10 min prior to tablet administration the dogs were dosed subcutaneously with approximately 3.2 nmol/kg of glucagon. The tablets were placed in the back of the mouth of the dog to prevent chewing. The mouth was then closed, and 10 mL of tap water was given by a syringe to facilitate swallowing of the tablet. Blood was sampled at predefined time points for up till 288 hours after dosing to adequately cover the full plasma concentration-time absorption profile of the compound. For each blood sampling time point approximately 1.2 mL of whole blood was collected in a 1.5 mL EDTA coated tube, and the tube was gently turned to allowing mixing of the sample with the EDTA. Then, the blood samples were kept on ice until centrifugation (4 min, 4° C., 4000 rpm). Plasma was pipetted into Micronic tubes on dry ice and kept at −20° C. until analysis. Blood samples were taken as appropriate, for example from a venflon in the cephalic vein in the front leg for the first 2 hours and then with syringe from the jugular vein for the rest of the time points (the first few drops were allowed to drain from the venflon to avoid heparin saline from the venflon in the sample).
Bioanalysis was carried out as follows: plasma concentrations of test compound were assayed by plasma protein precipitation and analysed by liquid chromatography-mass spectrometry (LC-MS). Calibrators were prepared by spiking blank dog plasma with analytes to reach the final concentrations in the range typically from 0.5 to 200 nM. Calibrators, plasma blanks or study samples were prepared for LC-MS by protein precipitation by adding 3 volumes of ethanol followed by centrifugation at 4000 rpm at 4° C. for 1 h. The supernatant was diluted with 2 volumes of Milli-Q water containing 0.1% formic acid before injection on the LC-MS system. […]

[2] = target: T1, human calcitonin receptor (hCTR) (Homo sapiens, UniProt P30988); experiment: Human calcitonin receptor (hCTR) in vitro potency assay, CRE-luciferase reporter in BHK cells; assay type: cell-based; conditions: BHK hCTR/CRE-Luc cells, 3 hours incubation, assay buffer with 1% ovalbumin; read-out: hCalcR potency, EC50
T1 construct: host or cells: BHK (Baby Hamster Kidney), Hollex-1 cell line
T1 sequence (P30988 25-474): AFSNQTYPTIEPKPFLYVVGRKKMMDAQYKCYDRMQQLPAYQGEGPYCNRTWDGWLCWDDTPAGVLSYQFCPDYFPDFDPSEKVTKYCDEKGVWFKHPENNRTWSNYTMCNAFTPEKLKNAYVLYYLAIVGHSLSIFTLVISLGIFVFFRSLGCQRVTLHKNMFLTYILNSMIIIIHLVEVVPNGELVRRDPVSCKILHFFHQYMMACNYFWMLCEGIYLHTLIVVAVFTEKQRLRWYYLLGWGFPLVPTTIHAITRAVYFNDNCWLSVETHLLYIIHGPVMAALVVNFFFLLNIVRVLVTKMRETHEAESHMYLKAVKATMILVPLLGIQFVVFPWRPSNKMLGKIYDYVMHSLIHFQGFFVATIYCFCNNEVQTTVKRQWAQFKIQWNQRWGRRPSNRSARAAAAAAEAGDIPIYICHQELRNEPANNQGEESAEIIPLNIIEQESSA
In short: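 BHK cells stably co-expressing human calcitonin receptor and a CRE-luciferase reporter, seeded the day before, were exposed to 7-fold serial dilutions (7 concentrations, often starting near 10 nM) in DMEM/HEPES/1% ovalbumin buffer for 3 h at 37 °C. Luminescence was then read after SteadyLite Plus addition.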

[3] = endogenous amylin, background statement; cited from earlier work

| Compound | half-life ([1]; male, dog, plasma, read-out: T½ (converted)) | AUC/D [1] | Cmax/D [1] | EC50 [2] | half-life [3] |
| --- | --- | --- | --- | --- | --- |
| CC[C@H](C)[C@H](NC(=O)[C@@H]1CCCN1C(=O)CNC(=O)[C@H](Cc1ccccc1)NC(=O)[C@H](Cc1c[nH]cn1)NC(=O)[C@H](Cc1c[nH]cn1)NC(=O)[C@H](CC(C)C)NC(=O)[C@H](Cc1ccccc1)NC(=O)[C@H](CCC(=O)O)NC(=O)[C@H](C)NC(=O)[C@H](CC(C)C)NC(=O)[C@H](CCCNC(=N)N)NC(=O)[C@H](C)NC(=O)[C@@H](NC(=O)[C@H](CCC(N)=O)NC(=O)[C@H](C)NC(=O)[C@@H](NC(=O)[C@H](CO)NC(=O)[C@H](CC(C)C)NC(=O)[C@H](CO)NC(=O)CNC(=O)[C@H](C)NC(=O)CC[C@H](NC(=O)CCCCCCCCCCCCCCCCC(=O)O)C(=O)O)[C@@H](C)O)[C@@H](C)O)C(=O)N[C@@H](CC(C)C)C(=O)N1CCC[C@H]1C(=O)N1CCC[C@H]1C(=O)N[C@H](C(=O)N[C@@H](CC(=O)O)C(=O)N[C@H](C(=O)NCC(=O)N[C@@H](CO)C(=O)N[C@@H](CCC(=O)O)C(=O)N[C@H](C(=O)N1CCC[C@H]1C(N)=O)[C@@H](C)O)C(C)C)[C@@H](C)O [Compound 15, N^1-[(4S)-4-carboxy-4-(17-carboxyheptadecanoylamino)butanoy]-[Ala1,Gly2,Ser3,Leu4,Ser5,Ala7,Gln8,Ala10,Glu14,His17,Pro25,Pro28,Pro29,Asp31,Glu35,Pro37],des-(19-22)-human amylin] ({C18 diacid-γGlu}-AGSLSTAQTARLAEFLHHFGPILPPTDVGSETP-NH2) | 85.9 h | 21.07 kg·h/L | 0.29 kg/L | 1.01 pM |  |
| amylin (KCNTATCATQRLANFLVHSSNNFGAILSSTNVGSNTY; listed as Homo sapiens) [Endogenous amylin, 37-amino acid long polypeptide hormone co-secreted with insulin from the pancreatic beta-cell] |  |  |  |  | 0.25 to 0.333 h |
